# In patent US7166688B1, “Chelation compositions” (LidoChem, Inc., priority 2000, dated 2007):
# How the values were obtained:
# [1] = system: corn seed, NCE Hybrid 5817; assay: Corn seed germination with IDS acid, root hairs; format: in vivo; details: 10 corn seed on germination tray, 1/10th of a gram of IDS acid, imbibed with water, day 5; control: root hairs only on short segments
# Description: A 34% tetrasodium iminodisuccinate solution was protonated with concentrated HCl and crystalized under refrigeration in a dilute water/ethanol. The crystals were then filtered out of the solution and the residual sodium chloride was rinsed from the crystals with ice water. The IDS crystals were then dried. Two sets of 10 corn seed, NCE Hybrid 5817, were then placed on germination trays. One tray had 1/10th of a gram of the IDS acid placed in the center of the tray. The seeds were then imbibed with water. The seeds germinated as expected on day 2. On day 5 the root hairs began to show on the seedlings treated with the IDS. Photos were taken. This procedure was repeated on three occasions with simular results. There were also root hairs on the control set, however, the root hairs were only on short segments of the roots. […] This would be a substantial increase in the root surface area.
# pepper plants = assay: IDS versus EDTA chelates applied to the soil of pepper plants, tissue analysis; format: in vivo
# Protocol: Below is the protocol and tissue analysis for the soil-applied iminodisuccinate and EDTA chelated mineral salts. Treatments: Control—no fertilizer 15-30-15 (fertilizer) alone 15-30-15 plus Cu IDS […] 15-30-15 plus Mn IDS […] 15-30-15 plus Zn IDS […] The standard fertilizer contained no micronutrients. Fertilizer was Hyponex 15-30-15. Each treatment was replicated 3 times. Soil treatments were applied as 50 ml per of the dilute blend of this invention. The pepper plants were transplanted into 1-gallon containers and grown until a suitable size. Plants were treated with the soil-applied chelate. Tissue samples were taken 30 days after the soil treatment had been applied. […] One gallon of fertilizer was poured over three replications of each set in the trial.
smiles,measurement,setting,value
"O=C(O)CC(NC(CC(=O)O)C(=O)O)C(=O)O (stereo not drawn) [IDS, iminodisuccinic acid]",root hairs on seedlings,[1],root hairs appear along the entire length of radical and lateral roots
same,"copper in tissue, TREATED","pepper plants; soil applied with 15-30-15, tissue 30 days after treatment, control 8.0",10.8
same,TREATED (dry weight),"pepper plants; soil applied, control 4.8",6.4
same,TREATED DRY,"pepper plants; soil applied, dry weight, CONTROL DRY 4.8",6.8
same,"copper in tissue, TREATED ADJUSTED","pepper plants; soil applied, tissue level times dry weight, control adjusted 38.08",68.79
same,"copper in tissue, CHANGE IN (adjusted)","pepper plants; soil applied, treated adjusted minus control adjusted 38.08",30.72
same,CHANGE IN WEIGHT,"pepper plants; soil applied, treated dry minus control dry 4.8",2.09
same,"copper in tissue, % CHANGE (adjusted)","pepper plants; soil applied, versus control adjusted 38.08",81%
same,% CHANGE (dry weight),"pepper plants; soil applied, versus control dry 4.8",44%
